Assays:
[1] = test system: Type I Collagen gene Col1a1 expression; assay: Precision cut lung slices of mice under acute bleomycin exposure; format: cell-based, mouse
Description: Mice (C57BL/6) were administered 3 U/kg of bleomycin (Teva Pharmaceuticals; North Wales, PA) on day 0 via oropharyngeal aspiration while under anesthesia. On day 14, precision cut lung slices were obtained. Following euthanization, 2% low gelling temp agarose was injected into the mouse lungs via the trachea. […] The lobes were then subjected to precision slicing to obtain samples for culture using a microtome (Compresstome VF-300-0Z, Precisionary; Greenville, NC). Individual slices were distributed in a multiwell culture plate and cultured for 3 days under control (DMSO) and test compound conditions.

lung Col1a1 expression [2] = assay: Precision cut lung slices of mice under chronic bleomycin exposure (vs pirfenidone and nintedanib); format: cell-based, mouse; details: slices cultured 7 days; nintedanib and pirfenidone at 10x therapeutic concentrations
Description: (§1) Mice (C57BL/6) were administered 3 U/kg of bleomycin (Teva Pharmaceuticals; North Wales, PA) on Day 0 and 1 U/kg of bleomycin on days 14, 28, 42 and 56 via oropharyngeal aspiration while under anesthesia. At day 70, 14 days following the final bleomycin insult, precision cut lung slices were obtained. Following euthanization, 2% low gelling temp agarose was injected into the mouse lungs via the trachea. […] The lobes were then subjected to precision slicing to obtain samples for culture using a microtome (Compresstome VF-300-0Z, Precisionary; Greenville, NC). Individual slices were distributed in a multiwell culture plate and cultured for 7 days under control (DMSO) and test compound conditions. The viability of the slices over the course of culturing was confirmed by WST-1 assay of mitochondrial activity.
During the culture period, slices in the control group were treated with DMSO and slices in the test group were treated with a DMSO solution of one of: compound 5; nintedanib; pirfenidone; a combination of nintedanib and compound 5; a combination of pirfenidone and compound 5; or the small molecule ALK5 inhibitor. Compound 5 was […] effective to equal or exceed its respective IC50 values at αvβ6 and αvβ1. The small molecule ALK5 inhibitor was analyzed at 10x its reported IC50 value. Nintendanib and pirfenidone were analyzed at concentrations 10x their reported therapeutic concentrations.

COL1A1 expression = assay: PCLS from human IPF lung tissue, 7 days: COL1A1 expression; format: cell-based; details: Compound 5 200 nM, nintedanib 75 nM, pirfenidone 50 µM, 5-7 IPF lungs
Description: PCLS from 5-7 idopathic pulmonary fibrosis (IPF) lung tissue samples were cultured for seven days with one of: DMSO; Compound 5 at 200 nM; nintedanib at 75 nM; pirfenidone at 50 µm; a combination of Compound 5 at 200 nM and nintedanib at 75 nM; a combination of Compound 5 at 200 nM and pirfenidone at 50 µm; or an Alk5 inhibitor at 1 µm. […] FIG. 6D is a bar graph showing relative expression of COL1A1 in precision cut lung slices (PCLS) from idopathic pulmonary fibrosis (IPF) lung tissue upon exposure to Comopund 5, clinical standard of care compounds nintedanib (Nin) and pirfenidone (Pirf), and an ALK5 inhibitor, all versus DMSO control.
PCLS from a single IPF lung tissue sample were cultured for seven days with Compound 5 at concentrations of 200 pM, 2 nM, 60 nM, 200 nM, and 1 µM, along with 0.1% DMSO control and an Alk5 inhibitor at 1 µM. […] COL1A1 expression is also graphed for the PCLS in the presence of 0.1% DMSO control, and an Alk5 inhibitor at 1 µM.

[3] = test system: fibrosis-related gene expression in explanted human lung tissue from patients with idiopathic pulmonary fibrosis; assay: nCounter Fibrosis Panel gene expression in precision cut lung slices from IPF explants; format: cell-based; details: IPF PCLS, 7 days, vs DMSO
Text: Fibrosis-related gene expression in explanted human lung tissue from patients with idiopathic pulmonary fibrosis was examined in order to determine what impact combining Compound 5 treatment with standard-of-care drugs nintedanib or pirfenidone, has on the expression of such genes.
Samples used for this analysis are a subset (n = 4 of 7) of the lungs previously reported on in Decaris et al., Respir Res (2021) 22:265 (FIGS. 6 A and B). Briefly, tissue samples from patients with IPF were acquired at the time of lung transplantation. Precision cut lung slices were generated from the explants and cultured for 7 days in the presence of inhibitors (Compound 5, nintedanib, pirfenidone) at clinically relevant concentrations or vehicle (DMSO). Treated slices were lysed in mRNA-compatible buffer for gene expression analysis. For this study, the lysate from n = 6 slices per treatment per lung were pooled for analysis using the nCounter Fibrosis Panel (Nanostring) on the nCounter Max analyzer (Nanostring). This commercially available panel of 770 genes includes genes related to initial tissue damage response, chronic inflammation, proliferation of pro-fibrotic cells, and tissue modification leading to fibrotic disease. Technical quality control and normalization of raw Nanostring mRNA count data was performed using an R framework developed by Bhattacharya et al. (Bhattacharya A. et al., Brief Bioinform. 2021 May 20;22(3):bbaa163). The R packages limma (see URL www.bioconductor.org/packages/release/bioc/html/limma.html) and voom (Law, C.W. et al., Genome Biol. 2014 Feb 3;15(2):R29) were used to detect differentially expressed genes. Benjamini-Hochberg False Discovery Rate (FDR = 5%) was used to adjust p-values for multiple comparisons.

lung Col1a1 expression [4] = assay: Precision cut lung slices of mice under chronic bleomycin exposure (single vs dual integrin inhibition); format: cell-based, mouse; details: slices cultured 7 days
Description: as §1, with “after” for “following”, “The viability of the slices over the course of culturing was confirmed by WST-1 assay of mitochondrial activity.” left out
During the culture period, slices in the control group were treated with DMSO and slices in the test group were treated with a DMSO solution of one of: the selective antibody αvβ6 inhibitor 3G9; the αvβ1-selective small molecule inhibitor; a combination of the selective antibody αvβ6 inhibitor 3G9 and the αvβ1-selective small molecule inhibitor; compound 5; and the small molecule ALK5 inhibitor. The selective αvβ1 and αvβ6 integrin inhibitors were analyzed at ≥ their respective IC90 concentrations for inhibition of TGF-beta activation. […] The small molecule ALK5 inhibitor was analyzed at 10x its reported IC50 value.

lung Col1a1 expression [5] = assay: Precision cut lung slices from human IPF explants, 3 days; format: cell-based; details: 3G9 ≥400 ng/mL, compound 5 179 nM, ALK5 inhibitor 1 µM
Text: Explanted lung tissue was obtained from human IPF subjects and inflated with agarose as described in the preceding examples. Biopsy cores were obtained from the agarose-inflated lung tissue. The biopsy cores were subjected to precision slicing to obtain several hundred µm thick. Individual slices were distributed in a multiwell culture plate and cultured for 3 days under control (DMSO) and test compound conditions. The viability of the slices over the course of culturing was confirmed by WST-1 assay of mitochondrial activity.

## Cc1ccc(=O)n(-c2ccccc2)c1 [pirfenidone, 5-methyl-1phenyl-2-1(H)-pyridone]
[1]; acute bleomycin injured lung slices
  fold increase in concentration over compound 5 needed to reduce lung slice Col1a1 expression by 50%: 3,940 fold
Lung Col1a1 expression [2]
  lung Col1a1 expression vs DMSO control: slight increase
COL1A1 expression
  reduction of COL1A1 expression: did not significantly reduce
[3]
  % Reduction of CDH2 expression: -7.12%
  % Reduction of COL1A1 expression: 8.58%
  % Reduction of COL5A3 expression: 23.95%
  % Reduction of ITGAS expression: 26.21%
  % Reduction of THBS2 expression: 21.20%
  logFC of ACACA expression: 0.4392
  logFC of ACVRL1 expression: -0.7278
  logFC of ALDH7A1 expression: 0.6119
  logFC of C6 expression: 1.475
  logFC of CD34 expression: -0.8356
  logFC of CDH5 expression: -1.0568
  logFC of CFTR expression: 1.189
  logFC of COL4A1 expression: -0.7024
  logFC of COL7A1 expression: 0.6703
  logFC of COL14A1 expression: -0.7785
  logFC of COX4I2 expression: -0.7471
  logFC of CXCL2 expression: 0.778
  logFC of CXCL12 expression: -0.5918
  logFC of CXCR4 expression: -0.8852
  logFC of EGFR expression: 0.4764
  logFC of F11R expression: 0.5803
  logFC of FGF19 expression: -1.14
  logFC of GAS1 expression: -0.6419
  logFC of GPC4 expression: 0.4613
  logFC of GREM1 expression: -0.7447
  logFC of HADH expression: 0.4377
  logFC of HAVCR1 expression: -0.7313
  logFC of ICAM1 expression: 0.4322
  logFC of IFNG expression: -0.5853
  logFC of KLF5 expression: 0.7343
  logFC of KNG1 expression: -1.1
  logFC of LYN expression: 0.4785
  logFC of MET expression: 1.096
  logFC of MMP7 expression: 1.413
  logFC of MMRN1 expression: -0.9784
  logFC of NOTCH4 expression: -0.7164
  logFC of OCLN expression: 0.5956
  logFC of PDGFRB expression: -0.7514
  logFC of PECAM1 expression: -0.9354
  logFC of PSENEN expression: 0.4784
  logFC of PTGS2 expression: 0.9466
  logFC of RELN expression: -0.8283
  logFC of SAA1 expression: 1.653
  logFC of TEK expression: -0.8124
  logFC of WWC1 expression: 0.8127

## Cc1cccc(-c2n[nH]cc2-c2ccc(F)c(-c3cnn(CCO)c3)c2)n1 [small molecule ALK5 inhibitor, 4-[2-Fluoro-5-[3-(6-methyl-2-pyridinyl)-1H-pyrazol-4-yl]phenyl]-1H-pyrazole-1-ethanol, reference compound]
[1]; slices cultured 3 days, integrin inhibitors at IC50, pan-αv and ALK5 inhibitors at 10x IC50
  Type I Collagen gene Col1a1 expression vs DMSO control: greatest decrease
Lung Col1a1 expression [4]
  lung Col1a1 expression vs DMSO control: greatest decrease
Lung Col1a1 expression [2]
  lung Col1a1 expression vs DMSO control: substantial, statistically significant
Lung Col1a1 expression [5]
  lung Col1a1 expression vs DMSO control: substantial, statistically significant
